We go through 20 compounds from EP1724268A1, “COMPOUND HAVING TGF-BETA INHIBITORY ACTIVITY AND PHARMACEUTICAL COMPOSITION CONTAINING SAME” (KIRIN BEER KABUSHIKI KAISHA, priority 2004, dated 2005).

The test concerns TGFβ signal. In words: TGFβ signal inhibitory activity, (SBE)4-Luc reporter in A549 cells (Test Examples 1A and 1B). The class given is cell-based, human. As to conditions: Homo sapiens, A549, read-out: TGFβ inhibition rate, %. An outline of the steps:
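Compounds at 3 µM and 10 µM (some 1 µM) were added with 2 ng/ml TGFβ-1 to A549 cells stably expressing an SBE-driven luciferase, then cultured 4 hr. Chemiluminescent luciferase signal gave % inhibition versus TGFβ-alone and no-TGFβ controls.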

[1] abbreviates: 3 µM, compounds of Reference Examples (Test Example 1B).
Where [2] appears, read: 10 µM, compounds of Reference Examples (Test Example 1B).
The mark [3] stands for this setting: test compound 3 µM, Reference Examples, Table 1B.
Setting [4] is: test compound 10 µM, Reference Examples, Table 1B.
Where [5] appears, read: test compound 3 µM, TGFβ-1 2 ng/ml, 4 hr, Table 1A.
The mark [6] stands for this setting: test compound 10 µM, TGFβ-1 2 ng/ml, 4 hr, Table 1A.

Like-named read-outs stand apart in the source and are kept apart here.

Turning to `COc1cc2nccc(Oc3cc(Cl)cnc3OC3CCCC3)c2cc1OC` [r222], the inhibition at 3 µM under setting [1] is 44%. Moreover, under setting [2], the inhibition at 10 µM stood at 100%.

On to `CCC(=O)c1cc(OC(F)(F)F)ccc1Oc1ccnc2cc(OC)c(OC)cc12` [Compound r51], for which the inhibition at 3 µM under setting [3] came to 71%. Besides, under setting [4], the inhibition at 10 µM stood at 99%.

With `COc1cc2nccc(Oc3ccc(C)nc3I)c2cc1OC` [r116], the inhibition at 3 µM under setting [3] was 99%. Also, the inhibition at 10 µM under setting [4] is 100%.

Consider `COc1cc2c(Oc3cc(C)c(C)nc3-c3ccccn3)ccnc2cc1Cl` [Compound 105, 3-(7-Chloro-6-methoxy-quinolin-4-yloxy)-5,6-dimethyl-[2,2']bipyridine], for which, under setting [5], the inhibition at 3 µM amounted to 100%. For the same compound, the inhibition at 10 µM under setting [6] stood at 100%.

For the compound `COc1cc2nccc(Oc3cc(C)ccc3C(C)=O)c2cc1OC` [Compound r32], the inhibition at 3 µM under setting [3] came to 81%. Also, the inhibition at 10 µM under setting [4] was 98%.

Consider `COc1cc2ncnc(Oc3cc(C)c(C)nc3-c3ncccn3)c2cc1OC` [Compound 51, 4-(5,6-Dimethyl-2-pyrimidin-2-yl-pyridin-3-yloxy)-6,7-dimethoxy-quinazoline], for which the inhibition at 3 µM under setting [5] was found to be 93%. Moreover, the inhibition at 10 µM under setting [6] amounted to 100%.

`COc1cc2nccc(Oc3ccc(C)nc3C#C[Si](C)(C)C)c2cc1OC` [r212]: the inhibition at 3 µM under setting [1] is 94%. Moreover, under setting [2], the inhibition at 10 µM came to 100%.

In the case of `COc1cc2c(Oc3ccc(C)cc3C(=O)c3ccccc3)ccnc2cc1OCCCN1CCN(C)CC1` [r138], under setting [3], the inhibition at 3 µM is 96%. Also, the inhibition at 10 µM under setting [4] turned out to be 100%.

Consider `Cc1cc(Oc2ccnc3ccc(-c4ccc(O)cc4)cc23)c(-c2ccccn2)nc1C` [Compound 12, 4-[4-(5,6-Dimethyl-[2,2']bipyridin-3-yloxy)-quinolin-6-yl]-phenol], for which, under setting [5], the inhibition at 3 µM worked out at 100%. The inhibition at 10 µM under setting [6] turned out to be 100%.

For `COc1cc2nccc(Oc3ccc(C)cc3C)c2cc1OC` [r5], the inhibition at 3 µM under setting [3] stood at 13%. In addition, the inhibition at 10 µM under setting [4] turned out to be 56%.

Consider `COc1cc2c(Oc3cc(C)c(C)nc3-c3ccc(C)cn3)ccnc2cc1OCCCO` [Compound r460], for which, under setting [1], the inhibition at 3 µM was 97%.

As to `COc1cc2nccc(Oc3cc(C)c(C)nc3-c3ccccn3)c2cc1OCc1ccccc1` [Compound 138, 3-(6-Benzyloxy-7-methoxy-quinolin-4-yloxy)-5,6-dimethyl-[2,2'] bipyridine], the inhibition at 3 µM under setting [5] came out at 98%. Besides, the inhibition at 10 µM under setting [6] came to 100%.

As to `COc1cc2c(Oc3cc(C)c(C)nc3-c3cccnc3)ccnc2cc1OCCCCO` [Compound r444], under setting [1], the inhibition at 3 µM was found to be 100%.

Consider `COc1cc2c(Oc3ccc(C)cc3C(=O)c3ccccc3)ccnc2cc1OCC(O)CN1CCN(C)CC1` (stereo not shown) [Compound r158], for which, under setting [3], the inhibition at 3 µM is 100%. Moreover, under setting [4], the inhibition at 10 µM was 100%.

For the compound `COc1cc2nccc(Oc3ccc(C)nc3-c3ccc(C)cc3)c2cc1OC` [Compound r242], the inhibition at 3 µM under setting [1] was 68%. The inhibition at 10 µM under setting [2] came out at 99%.

`COc1cc2nccc(Oc3ccc(C)nc3-c3cccc(N)c3)c2cc1OC` [Compound r235]: the inhibition at 3 µM under setting [1] came out at 100%. Besides, the inhibition at 10 µM under setting [2] worked out at 100%.

Consider `COc1cc2nccc(Oc3ccc(C)nc3-c3cnn(C)c3)c2cc1OC` [r438], for which, under setting [1], the inhibition at 3 µM worked out at 99%. Further, the inhibition at 10 µM under setting [2] was found to be 100%.

In the case of `COc1cc2c(Oc3cc(C)c(C)nc3-c3cccnc3)ccnc2cc1OCCO` [Compound r346], under setting [1], the inhibition at 3 µM stood at 99%.

As for `c1ccc(-c2nc3ncccc3cc2Oc2ncnc3sccc23)cc1` [Compound 76, 2-Phenyl-3-(thieno[2,3-d]pyrimidin-4-yloxy)-[1,8]naphthyridine], the inhibition at 3 µM under setting [5] turned out to be 44%. Also, the inhibition at 10 µM under setting [6] amounted to 83%.

On to `COc1cc2nccc(Oc3cc4ccncc4nc3-c3ccccc3)c2cc1OC` [Compound 98, 3-(6,7-Dimethoxy-quinolin-4-yloxy)-2-phenyl-[1,7]naphthyridine], for which the inhibition at 3 µM under setting [5] is 94%. Besides, the inhibition at 10 µM under setting [6] was 100%.

What is called inhibition is the share of the control response that was lost under treatment.
